Here are results for 1 compound from ChEMBL document CHEMBL4190187, “Discovery of pyrazolopyrimidine derivatives as novel inhibitors of ataxia telangiectasia and rad3 related protein (ATR)” (Bioorg Med Chem Lett, 2017).

Usually inhibition stands for the drop in the measured response relative to a control, in per cent.

Experiment [1] concerns the target Serine/threonine-protein kinase STK11 (Homo sapiens) (UniProt Q15831). Briefly: Inhibition of recombinant full-length human LKB1 at 1 uM using LSNLYHQGKFLQTFCGSPLYRRR as substrate after 40 mins in presence of [gamma-33P]ATP by scintillation counting method.
Experiment [2] has as its system Platelet-derived growth factor receptor alpha (Homo sapiens), P16234 [D842V]. Briefly: Inhibition of recombinant human PDGFRalpha D842V mutant (550 to end residues) at 1 uM using GGMEDIYFEFMGGKKK as substrate after 40 mins in presence of [gamma-33P]ATP by scintillation counting method.
The target of experiment [3] is Casein kinase I isoform gamma-3 (Homo sapiens) (UniProt Q9Y6M4). Nature of the experiment: Inhibition of recombinant human CK1gamma3 (1 to 330 residues) at 1 uM using KRRRALS(p)VASLPGL as substrate after 40 mins in presence of [gamma-33P]ATP by scintillation counting method.
In experiment [4] the target is Phosphatidylinositol 4,5-bisphosphate 3-kinase catalytic subunit gamma isoform (Homo sapiens) (UniProt P48736). Nature of the experiment: Inhibition of recombinant full-length human p120g at 1 uM using phosphatidylinositol-4,5-bisphosphate as substrate after 40 mins in presence of [gamma-33P]ATP by scintillation counting method.
Experiment [5] concerns the target Protein-tyrosine kinase 2-beta (Homo sapiens) (UniProt Q14289). Briefly: Inhibition of recombinant full-length human Pyk2 at 1 uM using poly(Glu,Tyr) 4:1 as substrate after 40 mins in presence of [gamma-33P]ATP by scintillation counting method.
In experiment [6] the test system is Tyrosine-protein kinase ABL1 (Homo sapiens), P00519 [Q252H]. Briefly: Inhibition of recombinant human Abl Q252H mutant (27 to end residues) at 1 uM using EAIYAAPFAKKK as substrate after 40 mins in presence of [gamma-33P]ATP by scintillation counting method.
The target in experiment [7] is Maternal embryonic leucine zipper kinase (Homo sapiens) (UniProt Q14680). Briefly: Inhibition of recombinant human MELK (1 to 340 residues) at 1 uM using KKLNRTLSFAEPG as substrate after 40 mins in presence of [gamma-33P]ATP by scintillation counting method.
The target in experiment [8] is Tyrosine-protein kinase FRK (Homo sapiens) (UniProt P42685). Briefly: Inhibition of recombinant human PTK5 (218 to end residues) at 1 uM using GGEEEEYFELVKKKK as substrate after 40 mins in presence of [gamma-33P]ATP by scintillation counting method.
For experiment [9], the target named is Activin receptor type-1B (Homo sapiens) (UniProt P36896). Nature of the experiment: Inhibition of recombinant human ALK4 (150 to end residues) at 1 uM using casein as substrate after 40 mins in presence of [gamma-33P]ATP by scintillation counting method.
For experiment [10], the target named is Serine/threonine-protein kinase 33 (Homo sapiens) (UniProt Q9BYT3). Briefly: Inhibition of recombinant full-length human STK33 at 1 uM using myelin basic protein as substrate after 40 mins in presence of [gamma-33P]ATP by scintillation counting method.
The target of experiment [11] is Cyclin-dependent kinase-like 1 (Homo sapiens) (UniProt Q00532). Briefly: Inhibition of recombinant human CDKL1 (1 to 303 residues) at 1 uM using RRRFRPASPLRGPPK as substrate after 120 mins in presence of [gamma-33P]ATP by scintillation counting method.
Experiment [12] concerns the target Eukaryotic translation initiation factor 2-alpha kinase 3 (Homo sapiens) (UniProt Q9NZJ5). Nature of the experiment: Inhibition of recombinant human PEK (536 to end residues) at 1 uM using RSRSRSRSRSRSRSR as substrate after 40 mins in presence of [gamma-33P]ATP by scintillation counting method.
For experiment [13], the target named is Myosin light chain kinase, smooth muscle (Homo sapiens) (UniProt Q15746). Briefly: Inhibition of recombinant human MLCK (1425 to 1771 residues) at 1 uM using […] after 40 mins in presence of [gamma-33P]ATP by scintillation counting method.
The target in experiment [14] is Phosphatidylinositol 4-phosphate 5-kinase type-1 alpha (Homo sapiens) (UniProt Q99755). Briefly: Inhibition of recombinant full-length human PIP5K1alpha at 1 uM using phosphatidylinositol 4-phosphate/phosphatidylserine as substrate after 40 mins in presence of [gamma-33P]ATP by scintillation counting method.
Experiment [15] addresses RAC-alpha serine/threonine-protein kinase (Homo sapiens) (UniProt P31749). Nature of the experiment: Inhibition of recombinant full-length human PKBalpha at 1 uM using GRPRTSSFAEGKK as substrate after 40 mins in presence of [gamma-33P]ATP by scintillation counting method.
Experiment [16] addresses Dual specificity tyrosine-phosphorylation-regulated kinase 3 (Homo sapiens) (UniProt O43781). Nature of the experiment: Inhibition of recombinant full-length human DYRK3 at 1 uM using RRRFRPASPLRGPPK as substrate after 40 mins in presence of [gamma-33P]ATP by scintillation counting method.
Experiment [17] deals with LIM domain kinase 1 (Homo sapiens) (UniProt P53667). Briefly: Inhibition of recombinant human LIMK1 (285 to 638 residues) at 1 uM using cofilin as substrate after 40 mins in presence of [gamma-33P]ATP by scintillation counting method.
In experiment [18] the target is Rhodopsin kinase GRK1 (Homo sapiens) (UniProt Q15835). Nature of the experiment: Inhibition of recombinant full-length human GRK1 at 1 uM using KKKKERLLDDRHDSGLDSMKDEE as substrate after 40 mins in presence of [gamma-33P]ATP by scintillation counting method.
The target in experiment [19] is Mitogen-activated protein kinase kinase kinase kinase 2 (Homo sapiens) (UniProt Q12851). Briefly: Inhibition of recombinant human GCK (1 to 473 residues) at 1 uM using myelin basic protein as substrate after 40 mins in presence of [gamma-33P]ATP by scintillation counting method.
Experiment [20] addresses Protein kinase C delta type (Homo sapiens) (UniProt Q05655). Nature of the experiment: Inhibition of recombinant human PKCdelta (2 to end residues) at 1 uM using ERMRPRKRQGSVRRRV as substrate after 40 mins in presence of [gamma-33P]ATP by scintillation counting method.
Experiment [21] concerns the target Protein kinase C zeta type (Homo sapiens) (UniProt Q05513). Nature of the experiment: Inhibition of recombinant human PKCzeta (2 to end residues) at 1 uM using ERMRPRKRQGSVRRRV as substrate after 40 mins in presence of [gamma-33P]ATP by scintillation counting method.
A further experiment is filed under the species Mus musculus. Briefly: Inhibition of recombinant full-length mouse p110a/recombinant p65a (1 to 571 residues) at 1 uM using phosphatidylinositol 4,5-bisphosphate as substrate after 40 mins in presence of [gamma-33P]ATP by scintillation counting method.
In experiment [22] the target is Tyrosine-protein kinase JAK1 (Homo sapiens) (UniProt P23458). Nature of the experiment: Inhibition of recombinant human JAK1 (866 to end residues) at 1 uM using GEEPLYWSFPAKKK as substrate after 40 mins in presence of [gamma-33P]ATP by scintillation counting method.
Experiment [23] relates to Proto-oncogene tyrosine-protein kinase Src (Homo sapiens), P12931 [T341M]. Briefly: Inhibition of recombinant full-length human Src T341M mutant at 1 uM using GGEEEEYFELVKKKK as substrate after 40 mins in presence of [gamma-33P]ATP by scintillation counting method.

Myosin light chain kinase, smooth muscle (Homo sapiens), sequence (Q15746 whole entry, the tested form may be a part): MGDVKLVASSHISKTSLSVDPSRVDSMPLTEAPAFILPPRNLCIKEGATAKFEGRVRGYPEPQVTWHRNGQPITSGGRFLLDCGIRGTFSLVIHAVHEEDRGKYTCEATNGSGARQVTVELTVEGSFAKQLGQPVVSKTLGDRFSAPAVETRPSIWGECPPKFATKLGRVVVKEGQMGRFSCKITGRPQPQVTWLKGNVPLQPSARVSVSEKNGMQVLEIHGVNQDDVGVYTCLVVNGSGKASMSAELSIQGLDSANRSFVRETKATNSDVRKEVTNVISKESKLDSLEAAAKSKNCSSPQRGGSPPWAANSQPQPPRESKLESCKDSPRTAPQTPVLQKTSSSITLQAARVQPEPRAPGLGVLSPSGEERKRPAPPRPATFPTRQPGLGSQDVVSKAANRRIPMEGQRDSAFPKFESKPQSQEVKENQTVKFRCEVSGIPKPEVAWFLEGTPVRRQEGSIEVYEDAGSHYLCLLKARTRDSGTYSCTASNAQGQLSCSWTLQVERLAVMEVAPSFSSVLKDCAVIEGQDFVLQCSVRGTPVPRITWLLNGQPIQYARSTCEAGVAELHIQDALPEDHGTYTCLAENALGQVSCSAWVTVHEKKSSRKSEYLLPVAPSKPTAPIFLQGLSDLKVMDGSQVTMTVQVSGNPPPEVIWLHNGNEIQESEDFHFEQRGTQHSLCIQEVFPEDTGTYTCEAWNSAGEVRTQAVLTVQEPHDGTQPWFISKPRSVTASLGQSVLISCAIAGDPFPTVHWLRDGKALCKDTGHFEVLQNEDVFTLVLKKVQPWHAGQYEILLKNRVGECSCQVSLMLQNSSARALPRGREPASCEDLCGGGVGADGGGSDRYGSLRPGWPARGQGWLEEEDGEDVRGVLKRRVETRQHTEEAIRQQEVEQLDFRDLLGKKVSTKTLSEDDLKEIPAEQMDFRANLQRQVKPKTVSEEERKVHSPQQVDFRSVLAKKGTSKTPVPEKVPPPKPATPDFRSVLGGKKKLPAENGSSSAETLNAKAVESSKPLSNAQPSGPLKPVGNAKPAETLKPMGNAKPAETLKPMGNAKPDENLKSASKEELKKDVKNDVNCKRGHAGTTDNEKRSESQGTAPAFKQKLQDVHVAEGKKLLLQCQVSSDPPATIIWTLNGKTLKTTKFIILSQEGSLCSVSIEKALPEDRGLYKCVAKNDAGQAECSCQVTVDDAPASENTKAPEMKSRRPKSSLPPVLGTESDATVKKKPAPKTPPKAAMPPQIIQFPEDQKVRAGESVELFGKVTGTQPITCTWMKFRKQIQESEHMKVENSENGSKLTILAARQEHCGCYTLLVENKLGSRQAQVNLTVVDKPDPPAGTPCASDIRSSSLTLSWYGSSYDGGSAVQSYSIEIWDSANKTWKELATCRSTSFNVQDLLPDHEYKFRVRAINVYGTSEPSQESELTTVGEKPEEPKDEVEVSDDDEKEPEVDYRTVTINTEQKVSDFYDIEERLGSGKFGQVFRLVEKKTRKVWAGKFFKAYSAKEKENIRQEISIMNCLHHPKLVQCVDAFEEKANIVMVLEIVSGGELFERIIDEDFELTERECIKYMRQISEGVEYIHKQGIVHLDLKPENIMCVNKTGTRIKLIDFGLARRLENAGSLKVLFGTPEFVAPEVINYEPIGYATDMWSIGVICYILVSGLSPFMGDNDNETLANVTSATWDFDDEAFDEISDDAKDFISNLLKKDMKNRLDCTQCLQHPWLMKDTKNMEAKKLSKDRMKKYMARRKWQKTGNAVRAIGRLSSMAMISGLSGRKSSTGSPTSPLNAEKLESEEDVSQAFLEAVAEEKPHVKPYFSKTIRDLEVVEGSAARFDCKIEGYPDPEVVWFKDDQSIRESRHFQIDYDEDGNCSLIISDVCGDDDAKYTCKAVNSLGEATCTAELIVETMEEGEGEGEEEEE
Phosphatidylinositol 4,5-bisphosphate 3-kinase catalytic subunit gamma isoform (Homo sapiens), sequence (P48736 whole entry, looked up, canonical isoform): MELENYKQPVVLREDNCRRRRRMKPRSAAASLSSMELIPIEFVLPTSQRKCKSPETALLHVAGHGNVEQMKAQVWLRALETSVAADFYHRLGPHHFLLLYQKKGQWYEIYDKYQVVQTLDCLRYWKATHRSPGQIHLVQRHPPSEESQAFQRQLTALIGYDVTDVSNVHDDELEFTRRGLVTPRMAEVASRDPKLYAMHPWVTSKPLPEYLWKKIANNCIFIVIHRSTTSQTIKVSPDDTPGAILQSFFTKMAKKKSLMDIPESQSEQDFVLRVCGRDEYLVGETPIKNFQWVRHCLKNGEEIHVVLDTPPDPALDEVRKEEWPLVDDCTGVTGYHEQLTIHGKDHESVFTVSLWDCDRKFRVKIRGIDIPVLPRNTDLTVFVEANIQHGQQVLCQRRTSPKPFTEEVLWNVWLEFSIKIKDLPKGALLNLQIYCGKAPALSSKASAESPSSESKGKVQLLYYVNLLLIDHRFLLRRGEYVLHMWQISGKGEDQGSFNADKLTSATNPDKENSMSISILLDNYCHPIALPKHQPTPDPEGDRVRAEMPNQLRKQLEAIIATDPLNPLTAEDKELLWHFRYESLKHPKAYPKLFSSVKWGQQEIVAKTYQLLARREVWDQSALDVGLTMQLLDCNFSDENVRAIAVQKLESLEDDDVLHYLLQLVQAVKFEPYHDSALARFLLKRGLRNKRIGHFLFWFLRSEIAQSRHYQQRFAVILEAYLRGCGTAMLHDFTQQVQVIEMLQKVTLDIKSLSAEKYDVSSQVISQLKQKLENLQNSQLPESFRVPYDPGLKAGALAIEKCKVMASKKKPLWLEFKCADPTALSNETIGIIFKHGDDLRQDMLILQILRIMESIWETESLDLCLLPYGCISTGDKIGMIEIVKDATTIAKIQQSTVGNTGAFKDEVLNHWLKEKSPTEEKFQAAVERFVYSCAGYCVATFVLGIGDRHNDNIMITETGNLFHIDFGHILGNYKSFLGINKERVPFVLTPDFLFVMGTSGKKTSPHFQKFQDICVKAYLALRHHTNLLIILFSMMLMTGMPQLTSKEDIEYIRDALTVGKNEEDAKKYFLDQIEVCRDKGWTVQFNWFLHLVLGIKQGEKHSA
Serine/threonine-protein kinase STK11 (Homo sapiens), sequence (Q15831 whole entry): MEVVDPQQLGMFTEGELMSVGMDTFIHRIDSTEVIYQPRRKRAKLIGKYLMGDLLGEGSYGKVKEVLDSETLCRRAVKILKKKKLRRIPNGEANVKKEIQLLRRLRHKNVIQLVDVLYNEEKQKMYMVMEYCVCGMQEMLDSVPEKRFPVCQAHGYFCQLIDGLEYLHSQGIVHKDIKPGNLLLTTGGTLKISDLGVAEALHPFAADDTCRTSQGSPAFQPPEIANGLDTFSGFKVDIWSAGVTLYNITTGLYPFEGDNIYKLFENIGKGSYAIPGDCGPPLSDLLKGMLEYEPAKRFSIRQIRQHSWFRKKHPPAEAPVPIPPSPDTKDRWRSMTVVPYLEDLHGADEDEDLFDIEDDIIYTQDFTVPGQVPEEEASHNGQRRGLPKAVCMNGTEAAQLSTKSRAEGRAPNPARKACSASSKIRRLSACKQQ
Tyrosine-protein kinase JAK1 (Homo sapiens), sequence (P23458 whole entry): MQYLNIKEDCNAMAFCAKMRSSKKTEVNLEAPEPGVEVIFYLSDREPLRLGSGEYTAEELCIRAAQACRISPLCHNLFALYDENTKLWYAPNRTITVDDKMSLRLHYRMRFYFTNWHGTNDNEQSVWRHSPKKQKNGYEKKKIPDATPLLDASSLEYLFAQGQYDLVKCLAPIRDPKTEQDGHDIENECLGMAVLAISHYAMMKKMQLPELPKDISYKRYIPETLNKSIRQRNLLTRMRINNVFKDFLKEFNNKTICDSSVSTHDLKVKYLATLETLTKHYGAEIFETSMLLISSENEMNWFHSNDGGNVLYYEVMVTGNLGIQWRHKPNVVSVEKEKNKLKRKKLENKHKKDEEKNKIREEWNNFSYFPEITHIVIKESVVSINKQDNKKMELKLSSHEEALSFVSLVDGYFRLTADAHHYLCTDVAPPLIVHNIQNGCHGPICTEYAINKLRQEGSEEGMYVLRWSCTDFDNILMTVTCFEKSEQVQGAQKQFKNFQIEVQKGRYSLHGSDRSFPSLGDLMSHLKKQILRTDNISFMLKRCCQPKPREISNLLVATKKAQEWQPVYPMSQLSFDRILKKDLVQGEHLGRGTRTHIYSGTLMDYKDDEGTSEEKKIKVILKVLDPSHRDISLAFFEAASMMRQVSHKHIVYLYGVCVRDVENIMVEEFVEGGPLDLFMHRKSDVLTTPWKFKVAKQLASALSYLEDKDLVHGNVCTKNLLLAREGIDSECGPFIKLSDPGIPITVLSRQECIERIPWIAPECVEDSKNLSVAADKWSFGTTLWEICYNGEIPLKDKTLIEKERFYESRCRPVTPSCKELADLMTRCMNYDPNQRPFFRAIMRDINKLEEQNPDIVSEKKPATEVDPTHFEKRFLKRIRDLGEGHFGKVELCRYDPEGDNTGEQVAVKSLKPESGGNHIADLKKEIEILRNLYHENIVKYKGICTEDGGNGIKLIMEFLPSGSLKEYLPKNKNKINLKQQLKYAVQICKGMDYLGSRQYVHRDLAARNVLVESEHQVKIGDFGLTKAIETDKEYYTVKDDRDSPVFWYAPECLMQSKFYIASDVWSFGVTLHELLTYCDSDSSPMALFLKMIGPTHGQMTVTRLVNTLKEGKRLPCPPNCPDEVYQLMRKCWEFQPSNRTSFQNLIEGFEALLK
Cyclin-dependent kinase-like 1 (Homo sapiens), sequence (Q00532 whole entry, the tested form may be a part): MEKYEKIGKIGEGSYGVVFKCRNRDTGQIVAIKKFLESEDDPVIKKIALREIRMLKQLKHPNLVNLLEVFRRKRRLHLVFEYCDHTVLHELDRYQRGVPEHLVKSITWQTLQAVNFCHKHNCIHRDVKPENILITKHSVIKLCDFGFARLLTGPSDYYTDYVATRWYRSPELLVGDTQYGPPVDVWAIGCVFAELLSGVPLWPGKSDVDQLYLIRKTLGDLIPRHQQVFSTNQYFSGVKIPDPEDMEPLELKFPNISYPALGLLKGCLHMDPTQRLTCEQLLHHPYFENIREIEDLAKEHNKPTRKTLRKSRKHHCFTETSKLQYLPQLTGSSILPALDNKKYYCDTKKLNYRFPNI

As for `CS(=O)(=O)c1ccc(-n2nc(-c3cnc4[nH]ccc4c3)c3c(N)ncnc32)cc1`, the inhibition in experiment [1] is -5%; in [2] it was 47%; in experiment [3] it was 9%; in experiment [4], 10%; in [5] it was 25%; in [6], 70%. In addition, the inhibition in [7] stood at 28%; in experiment [8] it was 94%; in [9] it was 80%; in experiment [10], 4%; in [11], 3%; in experiment [12] it was 13%. Moreover, the inhibition in [13] was 4%; in [14] it was 2%; in [15] it was -1%; in experiment [16] it was -10%; in experiment [17], 24%; in [18], 10%. Also, the inhibition in experiment [19] was found to be 52%; in experiment [20] it was 1%; in [21], 3%; in the experiment listed under Mus musculus, 7%; in experiment [22], 36%; in experiment [23], 7%.
